Laboratory results: publication PMC9021288 (Nature Communications, 2022)
Where “and” joins values, the source holds several entries; their conditions need not be identical. Equal entries are not always repeated. One block for each compound: values may come before it.

How the values were obtained:
[1] = test system: P. falciparum Pf3D7^0087/N9; assay: Single dose in vivo efficacy in humanized NSG mice; parameters: species or system Plasmodium falciparum
Protocol: The effect of pantothenamides on P. falciparum Pf3D7^0087/N9 [66] in vivo was assessed in female NSG mice (NODscidIL2Rγ^null) at the Swiss Tropical and Public Health Institute (Basel, Switzerland) as described previously (Supplementary Table 30)[15],[67]. Briefly, humanized mice were engrafted daily with human erythrocyte suspensions from days -11 to day 6. […] On day 4, groups of n = 2 mice were treated with a single dose pantothenamides or chloroquine (50 mg/kg) by oral gavage. […] Serial dilutions were prepared in the same solvent to concentrations 50 times higher than the corresponding CAL and QC concentrations. The concentrations were calculated under consideration of purity and salt factor. The spiking of the CAL and QC sample were performed at room temperature.

P. falciparum 3D7 = assay: Parasite reduction rate (PRR) in vitro killing rate assay; format: cell-based, Plasmodium falciparum
Protocol: The antimalarial killing rate was determined by GlaxoSmithKline (GSK, Tres Cantos, Madrid, Spain) as described previously. […] The number of viable parasites was determined on day 21 and 28 by counting the wells with parasite growth.

AcAS (PF3D7_0627800) = assay: Cellular thermal shift assay on parasite lysate; format: binding, Plasmodium falciparum; settings: 1 µM
Protocol: A cellular thermal shift assay (CETSA) was performed on infected RBCs or parasite lysates as described previously.
For a CETSA on parasite lysates, synchronized trophozoite cultures (ACS11-tagged parasites) were treated with 0.1% saponin to lyse the RBCs, and washed three times in PBS. Subsequently, parasite pellets were resuspended in 1× lysis buffer and subjected to three flash-freeze-thaw cycles using liquid nitrogen, followed by mechanical shearing using a syringe with a 25 G and a 30 G needle. Samples were spun down at 18,000 g for 20 min at 4 °C. The supernatant was diluted to 2.1 mg/ml protein concentration, and 100 µl was added to each PCR tube containing 1 µl of the compound at a 100× concentration (final concentration of 1 µM). Samples were incubated for 30 min at room temperature, subjected to a thermal gradient for 3 min on a pre-heated PCR machine, followed by 4 °C for 3 min. Samples were spun down at 18,000 g for 20 min at 4 °C and the soluble fraction was flash-frozen in liquid nitrogen and stored at −80 °C.
Samples were loaded on an 8% SDS-Page gel (Genscript) with 4×10^6 infected RBCs or 50 µg protein for the parasite lysate approach. Proteins were transferred to a nitrocellulose membrane that was blocked with 5% skim milk (Sigma) in PBS overnight and incubated with rabbit antiserum against AcAS (1:1000) for 1 h. Subsequently, membranes were washed three times with PBS-Tween for 5 min, followed by incubation with secondary horseradish peroxide (HRP)-conjugated goat anti-rabbit antibodies (Dako P0448, 1:1000) for 1 h. Blots were then washed three times with PBS-Tween for 5 min and twice with PBS. Following a 5-min incubation with Clarity Max Western ECL Substrate (BioRad), protein blots were imaged using the ImageQuant LAS4000 (GE Healthcare). The band intensity was quantified using Fiji software.

[2] = test system: P. falciparum NF54 rings and schizonts; assay: Stage-specific activity on synchronized ring and schizont cultures; format: cell-based, Plasmodium falciparum
Protocol: Asynchronous NF54 parasites were cultured in a semi-automated shaker system[63] and synchronized once with 5% D-sorbitol. […] This yielded a parasite culture with ≥ 90% rings. To assess the schizont-stage activity of MMV693186, the initial synchronized culture was treated again with sorbitol 7 h later. Subsequently, parasites were cultured for another 17 h to yield a parasite culture of ≥ 90% early schizont stages. The ring and schizont synchronized cultures were diluted to 0.5% and then incubated with either 50 nM DHA or 50 nM MM693183 for 24 h in duplicate. Subsequently, the drug was washed out and parasites were cultured for another 24 h. Parasitemia was determined using Giemsa-stained thin smears at 0 h, 24 h, and 48 h after drug exposure.

HepG2 cells = assay: HepG2 viability (resazurin); settings: human, 10 µM
Protocol: Safety studies were performed by commercial services using their standard protocols. […] Genotoxicity was investigated using the Ames test (Bacterial Reverse Mutation Assay) (Covance Laboratories Ltd, North Yorkshire, England). In vitro mammalian cell micronucleus screening assay was studied in human peripheral blood lymphocytes (BioReliance Corporation, Rockville, USA). Cardiotoxicity was determined against the hERG channel in an automated patch clamp assay using the Qpatch or against the hNaV 1.5, hKV 1.5 and hCaV 1.2 using a manual patch-clamp technique (Metrion Biosciences, Cambridge, UK). Cytotoxicity in human and rat primary hepatocytes was assessed using the CellTiter-Blue assay performed by commercial services (KaLy-Cell). The viability of HepG2 cells was monitored through the addition of 1 mM resazurin. Following 6 h incubation, the relative amount of reduced resazurin was detected in a fluorimeter and compared to the assay controls (vehicle: 0.1% DMSO and positive control: 10 µM puromycin).

[3] = test system: human G6PD-A-deficient RBCs; assay: Hemolytic toxicity in NSG mice engrafted with G6PD-deficient human RBCs; settings: Primaquine group
Protocol: Hemolytic toxicity was determined in female NSG mice (Jackson Laboratories) using erythrocytes from a G6PD-A-deficient blood donor (0.4 u/g hemoglobin).

[4] = test system: cryopreserved human primary hepatocytes; assay: Human hepatocyte clearance (relay assay); settings: 10 µM, single replicates
From the text: (§1) Briefly, cryopreserved human primary hepatocytes were thawed and cultured as described above.

[5] = Human hepatocyte clearance (relay assay); settings: human
From the text: as §1

[6] = test system: P. falciparum NF54 asexual blood-stage parasites; assay: 72-h asexual blood-stage replication assay (SYBR Green); format: cell-based, Plasmodium falciparum; settings: asexual blood stages NF54 parasites; read-out: IC50
Protocol: Replication assays were performed using a SYBR Green method as described previously. Briefly, asynchronous parasites were diluted to 0.83% parasitemia, 3% hematocrit in 30 µl medium, and added to 30 µl of diluted compounds in medium (0.1% DMSO final concentration) in black 384-wells plates. After a 72-h incubation, 30 µl of SYBR Green diluted in lysis buffer was added according to the manufacturer’s protocol (Life Technologies). Fluorescence intensity was measured on a BioTek Synergy 2 Plate Reader after 1-h incubation and was normalized to a DMSO control (100% growth) and DHA- or epoxomicin-treatment (no growth). […] Parasite survival was assessed by flow cytometry on an Accuri C6 (BD Biosciences) with BD C6 Plus software using SYBR Green and MitoTracker Deep Red FM (Life Technologies) as nuclear stain and vital dye, respectively, and data were analyzed using FlowJo (10.5.0). […] Luminescence was measured after 72 h using the Renilla-Glo(R) Luciferase Assay System (Promega E2750) and the GlomAX® Discover Multimode Microplate Reader (Promega). The luminescence values were normalized to DMSO vehicle (100% growth) and 200 nM chloroquine-treated (no growth) samples as controls.
Dose-response assays were analyzed by a nonlinear regression using a four-parameter model and the least squares method to find the best fit. One-way Analysis of variance (ANOVA) was performed using the Bonferroni’s Multiple Comparison Test. For the majority of experiments, 2-4 biological replicates were performed. Typically, 2 replicates were performed for screening activities, and a minimum of 3 replicates are performed for other experiments unless stated otherwise.

[7] = Solubility in PBS, FaSSIF, FeSSIF; format: physicochemical; settings: unknown samples, relative dilution factor 10000, duplicates

Compound: CCN(CC)CCCC(C)Nc1ccnc2cc(Cl)ccc12 (stereo not drawn) [CQ, chloroquine, reference compound]
- Parasitemia ([1]; day 5 post infection, 50 mg/kg p.o. on day 4, per mouse, 50 mg/kg): 0.12 and 0.07
- Parasitemia ([1]; day 6 post infection, per mouse): 0 and 0.01
- Parasitemia ([1]; day 7 post infection, per mouse): 0

Compound: CCc1nc(N)nc(N)c1-c1ccc(Cl)cc1 [Pyrimethamine]
- Average (log parasites +1) (P. falciparum 3D7; 24 h): 4.95
- Average (log parasites +1) (P. falciparum 3D7; 48 h): 1.57
- Average (log parasites +1) (P. falciparum 3D7; 72h): 0.53
- Average (log parasites +1) (P. falciparum 3D7; 96h): 0.00
- log (parasites +1) (P. falciparum 3D7; 96h): 0
- parasites (P. falciparum 3D7; 96h): 0
- Average (log parasites +1) (P. falciparum 3D7; 120h): 0.00
- log (parasites +1) (P. falciparum 3D7; 120h): 0
- parasites (P. falciparum 3D7; 120h): 0

Compound: C[C@H]1[C@@H](O)O[C@@H]2O[C@@]3(C)CC[C@H]4[C@H](C)CC[C@@H]1[C@@]24OO3 [DHA, dihydroartemisinin]
- AcAS band intensity normalized to DMSO at 37 °C (AcAS (PF3D7_0627800); 37 °C): 142.951
- AcAS band intensity normalized to DMSO at 37 °C (AcAS (PF3D7_0627800); 42 °C): 180.287
- AcAS band intensity normalized to DMSO at 37 °C (AcAS (PF3D7_0627800); 47 °C): 80.1639
- AcAS band intensity normalized to DMSO at 37 °C (AcAS (PF3D7_0627800); 52 °C): 24.4159
- Parasitemia, rings culture ([2]; Time (h) 0): 0.4
- Parasitemia, rings culture ([2]; Time (h) 24): 0
- Parasitemia, rings culture ([2]; Time (h) 48): 0
- Parasitemia, schizonts culture ([2]; Time (h) 0): 0.2
- Parasitemia, schizonts culture ([2]; Time (h) 24): 0
- Parasitemia, schizonts culture ([2]; Time (h) 48): 0

Compound: COc1ccc(C[C@H](N)C(=O)N[C@H]2[C@@H](O)[C@H](n3cnc4c(N(C)C)ncnc43)O[C@@H]2CO)cc1 [puromycin]
- HepG2 viability assay, raw signal, MIN average (HepG2 cells): 764

Compound: COc1cc(NC(C)CCCN)c2ncccc2c1 (stereo not drawn) [Primaquine]
- Human RBCs ([3]; day 0, individual mice): 74.3% and 71.3% and 74.2% and 65%
- Reticulocytes ([3]; day 0, individual mice): 0.41% and 0.56% and 0.49% and 0.54%
- Human RBCs ([3]; day 4, individual mice): 54.6% and 45.9% and 58.7% and 49.1%
- Reticulocytes ([3]; day 4, individual mice): 5.2% and 2.88% and 7.64% and 5.35%
- Human RBCs ([3]; day 7, individual mice): 13.5% and 5.35% and 9.52% and 4.33%
- Reticulocytes ([3]; day 7, individual mice): 4.47% and 5.69% and 5.07% and 8.31%
- Hematocrit ([3]; individual mice): 31.37% and 28.81% and 29.69% and 29.51%
- Spleen weight ([3]; individual mice): 1.219 % of body weight and 1.099 % of body weight and 1.08 % of body weight and 1.161 % of body weight

- % Remaining ([4]; hepatocyte donor HC06, 3 h): 76.9%
- % Remaining ([4]; hepatocyte donor HC06, 6 h): 57.5%
- % Remaining ([4]; hepatocyte donor HC425, 6 h): 78.5%
- % Remaining ([4]; hepatocyte donor HC425, 24 h): 39.0%
- % Remaining ([4]; hepatocyte donor HC425, 48 h): 22.9%
- % Remaining ([4]; hepatocyte donor HC425, 72 h): 4.8%
- % Remaining ([4]; hepatocyte donor HC1010, 3 h): 50.4%
- % Remaining ([4]; hepatocyte donor HC1010, 6 h): 26.9%
- remaining at 0 h, 10 µM ([5]; % Remaining, 10 µM, hepatocyte donor HC02, 0 h, single replicates): 100%
- remaining at 6 h, 10 µM ([5]; % Remaining, 10 µM, hepatocyte donor HC02, 6 h, single replicates): 2.2%
- remaining at 0 h, 10 µM ([5]; % Remaining, 10 µM, hepatocyte donor HC06, 0 h, single replicates): 100%
- remaining at 3 h, 10 µM ([5]; % Remaining, 10 µM, hepatocyte donor HC06, 3 h, single replicates): 80.9%
- remaining at 6 h, 10 µM ([5]; % Remaining, 10 µM, hepatocyte donor HC06, 6 h, single replicates): 56.3%
- remaining at 0 h, 10 µM ([5]; % Remaining, 10 µM, hepatocyte donor HC425, 0 h, single replicates): 100%
- remaining at 6 h, 10 µM ([5]; % Remaining, 10 µM, hepatocyte donor HC425, 6 h, single replicates): 72.1%
- remaining at 24 h, 10 µM ([5]; % Remaining, 10 µM, hepatocyte donor HC425, 24 h, single replicates): 33.1%
- remaining at 0 h, 10 µM ([5]; % Remaining, 10 µM, hepatocyte donor HC1010, 0 h, single replicates): 100%
- remaining at 3 h, 10 µM ([5]; % Remaining, 10 µM, hepatocyte donor HC1010, 3 h, single replicates): 46.7%
- remaining at 6 h, 10 µM ([5]; % Remaining, 10 µM, hepatocyte donor HC1010, 6 h, single replicates): 29.5%
- remaining at 24 h, 10 µM ([5]; % Remaining, 10 µM, hepatocyte donor HC1010, 24 h, single replicates): 2%
- remaining at 48 h, 10 µM ([5]; cryopreserved human primary hepatocytes (relay assay), % Remaining, 10 µM, hepatocyte donor HC425, 48 h, single replicates): 25.4%
- remaining at 72 h, 10 µM ([5]; cryopreserved human primary hepatocytes (relay assay), % Remaining, 10 µM, hepatocyte donor HC425, 72 h, single replicates): 8.2%
- hepatocyte CLint ([5]; cryopreserved human primary hepatocytes (relay assay), CLint, donor HC02): 21.2 µL/min/1e6 cells
- hepatocyte CLint ([5]; cryopreserved human primary hepatocytes (relay assay), CLint, donor HC06): 3.14 µL/min/1e6 cells
- hepatocyte CLint at 10 µM ([5]; cryopreserved human primary hepatocytes (relay assay), CLint, donor HC425): 1.19 µL/min/1e6 cells
- hepatocyte CLint ([5]; cryopreserved human primary hepatocytes (relay assay), CLint, donor HC1010): 6.28 µL/min/1e6 cells
Compound: CCOc1ccc2ccc(=O)oc2c1 [7-Ethoxycoumarin]

- remaining at 0 h, 10 µM ([5]; hepatocytes, % Remaining): 100%
- remaining at 3 h, 10 µM ([5]; hepatocytes, % Remaining): 98.8%
Compound: CCCCNC(=O)NS(=O)(=O)c1ccc(C)cc1 [Tolbutamide]

Compound: C[C@@H](CNC(=O)[C@H](O)C(C)(C)CO)NC(=O)c1cccc(C(F)(F)F)c1 [MMV892614]
- IC50 [6]: 143 nM

Compound: C[C@@H](CNC(=O)[C@H](O)C(C)(C)CO)NC(=O)c1cc(F)c(F)cc1F [MMV693183-06]
- Calculated concentration (solubility sample) ([7]; FaSSIF): 9179.95 ppm and 9316.55 ppm
- Calculated concentration (solubility sample) ([7]; FeSSIF): 9110.79 ppm and 8990.98 ppm
- Calculated concentration (solubility sample) ([7]; PBS): 6813.58 ppm and 7461.45 ppm
